IC50 data for 1 compound are collected here from publication PMC10094048, “Synthesis and Anticancer Evaluation of 4-Anilinoquinolinylchalcone Derivatives” (International Journal of Molecular Sciences, 2023).

One experiment deals with MRC-5. The experiment in a line: XTT antiproliferative assay, normal lung cells MRC-5. The class given is cell-based. Particulars: Homo sapiens, MRC5, 72 h, mean ± SD. As for the experimental part:
All the synthesized 4-anilinoquinolinylchalcone derivatives were evaluated in vitro against two cancer cells (Huh-7 and MDA-MB-231) and a non-cancer normal fibroblast lung cell line (MRC-5) using an XTT (sodium 3′-[1-(phenylamino-carbonyl)-3,4-tetrazolium}-bis(4-methoxy-6-nitro)benzene sulfonic acid hydrate) assay. The concentration that inhibited the growth of 50% of cells (IC50) was determined from the linear portion of the curve by calculating the concentration of the tested agent that reduced absorbance in treated cells, compared to control cells, by 50%. The IC50 results of these 4-anilinoquinolinylchalcone derivatives are summarized (Table 1). […] Thus, 4a was selected as a lead compound for further mechanism studies.
Cancer cells (Huh-7, MDA-MB-231) and normal lung cells (MRC-5) were purchased from Bioresources Collection and Research Center, Taiwan. Cells were maintained in the same standard medium, grown as a monolayer in DMEM (Gibco, Miami, FL, USA), and supplemented with 10% fetal bovine serum (FBS) and antibiotics, i.e., 100 IU/mL penicillin, 0.1 mg/mL streptomycin and 0.25 μg/mL amphotericin. The culture was maintained at 37 °C with 5% CO2 in a humidified atmosphere. Cells (5 × 10^3 cells/well) were treated with tested compounds for 72 h in the medium containing 10% FBS. Cell viability was quantitated with the use of sodium 3′-[1-(phenylamino-carbonyl)-3,4-tetrazolium}-bis(4-methoxy-6-nitro)benzene sulfonic acid hydrate (XTT) colorimetric assay (Biological Industries, Beit-Haemek, Israel). XTT labeling reagent (1 mg/mL) was mixed with electron-coupling reagent, following the manufacturer’s instructions, and 50 μL of the mixture was added directly to the cells. The plates were further incubated at 37 °C for 4 h. Color was measured spectrophotometrically in a microtiter plate reader at 492 nm and used as a relative measurement of viable cell numbers. After drug treatment, the viable cell number was compared to the solvent and untreated control cell number. This information was used to determine the percent of control growth as (Abtreated/Abcontrol) × 100, where Ab represents the mean absorbance (n = 3). The concentration that killed 50% of cells (IC50) was determined from the linear portion of the curve by calculating the concentration of the agent that reduced the absorbance in treated cells, compared to control cells, by 50%.

Another experiment has as its system MDA-MB-231. On the set-up: method as in PMID 23237975. Particulars: value marked with footnote c; cited from earlier work.
Another experiment deals with H1299. On the set-up: method as in PMID 23237975. The conditions noted are these: read-out: IC50 against the growth of H1299; cited from earlier work.
Another experiment relates to SKBR-3. More on the design: method as in PMID 23237975. Particulars: read-out: IC50 against the growth of SKBR-3; cited from earlier work.

What is called IC50 is the midpoint of a concentration-inhibition curve.

The structures appear in SMILES notation.

In the case of `COc1ccc(-c2cc3ccccc3nc2/C=C/C(=O)c2ccccc2)cc1` [Compound 1, (E)-3-[3-(4-methoxyphenyl)quinolin-2-yl]-1-phenylprop-2-en-1-one], the IC50 with MRC-5 is 660 ± 60 nM; in the experiment with MDA-MB-231 it was 860 ± 70 nM; in the experiment on H1299, 1410 nM; in the experiment with SKBR-3, 700 nM.
